Calls of active or inactive are those of the source. No cut-off for these calls is given here.

Data set [1] can be described thus: Cytotoxicity against human U937 cells assessed as cell viability at 100 uM after 24 hrs by cell counting method (reference value: 94%). Format: cell-based, U-937. To be noted: read-out: Activity.
The target in data set [2] is Ras-related protein Rab-7a (Homo sapiens) (UniProt P51149). Briefly: Displacement of BODIPY-GTP from nucleotide binding site of wild-type GST-tagged Rab7 GTPase (unknown origin) expressed in Escherichia coli BL21(DE3) in EDTA buffer assessed as residual activity after 2 hrs by flow cytometry. Background: In flow cytometry, cells or beads pass a laser one at a time.
Data set [3] has the same target. Briefly: Displacement of BODIPY-GTP from nucleotide binding site of wild-type GST-tagged Rab7 GTPase (unknown origin) expressed in Escherichia coli BL21(DE3) in Mg buffer assessed as residual activity after 2 hrs by flow cytometry.
Data set [4] has the same target. Briefly: Displacement of BODIPY-GTP from nucleotide binding site of wild-type GST-tagged Rab7 GTPase (unknown origin) expressed in Escherichia coli BL21(DE3) after 2 hrs by flow cytometry relative to untreated control.
The target in data set [5] is T1, Integrin alpha-4/beta-1 (Homo sapiens) (UniProt P05556+P13612). Briefly: Inhibition of FITC-LDV peptide binding to VLA4 in human U937 deltaST cells at 30 uM by FACScan flow cytometry. The data set is classed as cell-based.
Data set [6] can be described thus: Chemical stability of the compound after 72 hrs in presence of 1 to 2.4 mg L-glutathione by LCMS analysis. The data set is classed as physicochemical.
Data set [7] concerns the target T1, Integrin alpha-4/beta-1 (Homo sapiens). Briefly: Inhibition of FITC-LDV peptide binding to VLA4 in human U937 deltaST cells at 10 to 100 uM by FACScan flow cytometry. The data set is classed as cell-based.
For data set [8] the target is unchanged. Briefly: Inhibition of FITC-LDV peptide binding to VLA4 in human U937 deltaST cells at 10 to 50 uM by FACScan flow cytometry. The data set is classed as cell-based.

Ras-related protein Rab-7a (Homo sapiens), sequence (P51149 whole entry): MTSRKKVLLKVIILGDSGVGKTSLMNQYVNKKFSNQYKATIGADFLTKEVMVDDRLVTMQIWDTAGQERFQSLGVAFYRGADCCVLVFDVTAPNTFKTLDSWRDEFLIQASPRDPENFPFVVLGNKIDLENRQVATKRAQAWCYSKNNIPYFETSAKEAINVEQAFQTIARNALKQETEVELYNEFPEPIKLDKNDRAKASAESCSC

Turning to `CC1Cc2c(sc(NC(=S)NC(=O)c3ccccc3)c2C(=O)O)CO1` (centres undefined), the viability at 24 h, 100 µM in data set [1] stood at 94%. Further, the figures for the Activity in data set [2] and in data set [3] were 91% and 56%, respectively.
In the case of `Nc1nc2c(ncn2[C@@H]2O[C@H](COP(=O)(O)OP(=O)(O)O)[C@@H](O)[C@H]2O)c(=O)[nH]1`, the inhibition entry in data set [4] was “Active”.
Regarding `CC1(C)Cc2c(sc(NC(=S)NC(=O)c3ccc(F)cc3)c2C(=O)O)CO1`, the Activity in data set [2] is 100%.
With `CC1(C)Cc2c(sc(NC(=O)NC(=O)c3ccccc3)c2C(=O)O)CO1`, the viability at 24 h, 100 µM in data set [1] is 98%. Moreover, the inhibition result in data set [5] is “Active”.
In the case of `CC1(C)Cc2c(sc(NC(=S)NC(=O)c3ccccc3)c2C(=O)O)CO1`, the Stability entry in data set [6] is given as “Stable”. For the same compound, the inhibition entry in data set [7] was “Active”.
Regarding `Nc1nc2c(ncn2[C@@H]2O[C@H](COP(=O)(O)OP(=O)(O)OP(=O)(O)O)[C@@H](O)[C@H]2O)c(=O)[nH]1`, in data set [4], the inhibition entry was “Active”.
As to `O=C(NC(=S)Nc1sc2c(c1C(=O)O)CCOC2)c1ccccc1`, the viability at 24 h, 100 µM in data set [1] came to 92%. In addition, the Activity in data set [2] turned out to be 91%; in data set [3] it was 45%. For the same compound, in data set [8], the inhibition result was “Active”.

Values taken from ChEMBL document CHEMBL3991948, “Rab7 GTPase inhibitors and related methods of treatment” (2014).
